Laboratory results as given in the supplement of paper PMC10307832.

Legend:
Test in all cases: relative viability (nuclei count vs DMSO), 5 days (fraction); higher = more cells survive
201T = tested on: 201T
Procedure, shortened: (§1)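 Lung cancer cell lines in 1536-well plates got either a single drug or a fixed anchor-drug dose together with five library-drug doses (not always all listed) in √10 steps, by pin tool, on the day after seeding. Nuclei were counted after 5 days, and relative viability is the treated-to-vehicle ratio of nuclei counts. Values are medians of duplicate plates.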

ABC-1 = tested on: ABC-1
Procedure, shortened: as §1

BEN = tested on: BEN
Procedure, shortened: as §1

CAL-12T = tested on: CAL-12T
Procedure, shortened: as §1

COR-L 105 = tested on: COR-L 105
Procedure, shortened: as §1

COR-L23 = tested on: COR-L23
Procedure, shortened: as §1

EKVX = tested on: EKVX
Procedure, shortened: as §1

HARA = tested on: HARA
Procedure, shortened: as §1

HCC-366 = tested on: HCC-366
Procedure, shortened: as §1

LK-2 = tested on: LK-2
Procedure, shortened: as §1

LU99A = tested on: LU99A
Procedure, shortened: as §1

NCI-H1437 = tested on: NCI-H1437
Procedure, shortened: as §1

NCI-H1650 = tested on: NCI-H1650
Procedure, shortened: as §1

NCI-H1666 = tested on: NCI-H1666
Procedure, shortened: as §1

NCI-H2009 = tested on: NCI-H2009
Procedure, shortened: as §1

NCI-H2170 = tested on: NCI-H2170
Procedure, shortened: as §1

NCI-H3122 = tested on: NCI-H3122
Procedure, shortened: as §1

NCI-H441 = tested on: NCI-H441
Procedure, shortened: as §1

NCI-H661 = tested on: NCI-H661
Procedure, shortened: as §1

NCI-H727 = tested on: NCI-H727
Procedure, shortened: as §1

NCI-H838 = tested on: NCI-H838
Procedure, shortened: as §1

PC-14 = tested on: PC-14
Procedure, shortened: as §1

SW 900 = tested on: SW 900
Procedure, shortened: as §1

CC1(C)CCC(c2ccc(Cl)cc2)=C(CN2CCN(c3ccc(C(=O)NS(=O)(=O)c4ccc(N[C@H](CCN5CCOCC5)CSc5ccccc5)c(S(=O)(=O)C(F)(F)F)c4)cc3)CC2)C1 [Navitoclax] + COc1cccc2cc(-c3nc([C@H]4CC[C@H](C(=O)O)CC4)n4ncnc(N)c34)[nH]c12 [OSI-027] (partner 0.5 µM)
relative viability (201T; first compound 0.005 µM): 0.73 | relative viability (201T; first compound 0.01581 µM): 0.805 | relative viability (201T; first compound 0.05 µM): 0.392 | relative viability (201T; first compound 0.1581 µM): 0.707 | relative viability (201T; first compound 0.5 µM): 0.647 | relative viability (ABC-1; first compound 0.005 µM): 0.506 | relative viability (ABC-1; first compound 0.01581 µM): 0.637 | relative viability (ABC-1; first compound 0.05 µM): 0.397 | relative viability (ABC-1; first compound 0.1581 µM): 0.572 | relative viability (ABC-1; first compound 0.5 µM): 0.356 | relative viability (BEN; first compound 0.005 µM): 0.286 | relative viability (BEN; first compound 0.01581 µM): 0.308 | relative viability (BEN; first compound 0.05 µM): 0.333 | relative viability (BEN; first compound 0.1581 µM): 0.308 | relative viability (BEN; first compound 0.5 µM): 0.281 | relative viability (CAL-12T; first compound 0.005 µM): 0.649 | relative viability (CAL-12T; first compound 0.01581 µM): 0.676 | relative viability (CAL-12T; first compound 0.05 µM): 0.557 | relative viability (CAL-12T; first compound 0.1581 µM): 0.677 | relative viability (CAL-12T; first compound 0.5 µM): 0.629 | relative viability (COR-L 105; first compound 0.005 µM): 0.663 | relative viability (COR-L 105; first compound 0.01581 µM): 1.01 | relative viability (COR-L 105; first compound 0.05 µM): 0.573 | relative viability (COR-L 105; first compound 0.1581 µM): 0.775 | relative viability (COR-L 105; first compound 0.5 µM): 0.582 | relative viability (COR-L23; first compound 0.005 µM): 0.839 | relative viability (COR-L23; first compound 0.01581 µM): 0.814 | relative viability (COR-L23; first compound 0.05 µM): 0.877 | relative viability (COR-L23; first compound 0.1581 µM): 0.785 | relative viability (COR-L23; first compound 0.5 µM): 0.779 | relative viability (EKVX; first compound 0.005 µM): 0.684 | relative viability (EKVX; first compound 0.01581 µM): 0.882 | relative viability (EKVX; first compound 0.05 µM): 0.651 | relative viability (EKVX; first compound 0.1581 µM): 0.686 | relative viability (EKVX; first compound 0.5 µM): 0.737 | relative viability (HARA; first compound 0.005 µM): 0.538 | relative viability (HARA; first compound 0.01581 µM): 0.684 | relative viability (HARA; first compound 0.1581 µM): 0.66 | relative viability (HARA; first compound 0.5 µM): 0.459 | relative viability (HCC-366; first compound 0.005 µM): 0.912 | relative viability (HCC-366; first compound 0.01581 µM): 0.941 | relative viability (HCC-366; first compound 0.1581 µM): 0.972 | relative viability (HCC-366; first compound 0.5 µM): 0.978 | relative viability (LK-2; first compound 0.005 µM): 0.204 | relative viability (LK-2; first compound 0.01581 µM): 0.256 | relative viability (LK-2; first compound 0.05 µM): 0.182 | relative viability (LK-2; first compound 0.1581 µM): 0.174 | relative viability (LK-2; first compound 0.5 µM): 0.193 | relative viability (LU99A; first compound 0.005 µM): 0.305 | relative viability (LU99A; first compound 0.01581 µM): 0.345 | relative viability (LU99A; first compound 0.05 µM): 0.248 | relative viability (LU99A; first compound 0.1581 µM): 0.26 | relative viability (LU99A; first compound 0.5 µM): 0.312 | relative viability (NCI-H1437; first compound 0.005 µM): 0.845 | relative viability (NCI-H1437; first compound 0.01581 µM): 0.974 | relative viability (NCI-H1437; first compound 0.05 µM): 0.932 | relative viability (NCI-H1437; first compound 0.1581 µM): 0.856 | relative viability (NCI-H1437; first compound 0.5 µM): 0.83 | relative viability (NCI-H1650; first compound 0.005 µM): 0.601 | relative viability (NCI-H1650; first compound 0.01581 µM): 1 | relative viability (NCI-H1650; first compound 0.05 µM): 0.698 | relative viability (NCI-H1650; first compound 0.1581 µM): 0.526 | relative viability (NCI-H1650; first compound 0.5 µM): 0.445 | relative viability (NCI-H1666; first compound 0.005 µM): 0.823 | relative viability (NCI-H1666; first compound 0.01581 µM): 0.815 | relative viability (NCI-H1666; first compound 0.05 µM): 0.859 | relative viability (NCI-H1666; first compound 0.1581 µM): 0.758 | relative viability (NCI-H1666; first compound 0.5 µM): 0.839 | relative viability (NCI-H2009; first compound 0.005 µM): 0.598 | relative viability (NCI-H2009; first compound 0.01581 µM): 0.792 | relative viability (NCI-H2009; first compound 0.05 µM): 0.576 | relative viability (NCI-H2009; first compound 0.1581 µM): 0.643 | relative viability (NCI-H2009; first compound 0.5 µM): 0.735 | relative viability (NCI-H2170; first compound 0.005 µM): 0.669 | relative viability (NCI-H2170; first compound 0.01581 µM): 0.814 | relative viability (NCI-H2170; first compound 0.05 µM): 0.787 | relative viability (NCI-H2170; first compound 0.1581 µM): 0.647 | relative viability (NCI-H2170; first compound 0.5 µM): 0.551 | relative viability (NCI-H3122; first compound 0.005 µM): 0.98 | relative viability (NCI-H3122; first compound 0.01581 µM): 0.949 | relative viability (NCI-H3122; first compound 0.05 µM): 1.04 | relative viability (NCI-H3122; first compound 0.1581 µM): 0.902 | relative viability (NCI-H3122; first compound 0.5 µM): 0.978 | relative viability (NCI-H441; first compound 0.005 µM): 0.732 | relative viability (NCI-H441; first compound 0.01581 µM): 0.635 | relative viability (NCI-H441; first compound 0.05 µM): 0.58 | relative viability (NCI-H441; first compound 0.1581 µM): 0.56 | relative viability (NCI-H441; first compound 0.5 µM): 0.849 | relative viability (NCI-H661; first compound 0.005 µM): 0.734 | relative viability (NCI-H661; first compound 0.01581 µM): 0.775 | relative viability (NCI-H661; first compound 0.05 µM): 0.793 | relative viability (NCI-H661; first compound 0.1581 µM): 0.687 | relative viability (NCI-H661; first compound 0.5 µM): 0.716 | relative viability (NCI-H727; first compound 0.005 µM): 0.675 | relative viability (NCI-H727; first compound 0.01581 µM): 0.692 | relative viability (NCI-H727; first compound 0.1581 µM): 0.663 | relative viability (NCI-H727; first compound 0.5 µM): 0.728 | relative viability (NCI-H838; first compound 0.005 µM): 0.373 | relative viability (NCI-H838; first compound 0.01581 µM): 0.434 | relative viability (NCI-H838; first compound 0.05 µM): 0.495 | relative viability (NCI-H838; first compound 0.1581 µM): 0.349 | relative viability (NCI-H838; first compound 0.5 µM): 0.41 | relative viability (PC-14; first compound 0.005 µM): 0.735 | relative viability (PC-14; first compound 0.01581 µM): 1.12 | relative viability (PC-14; first compound 0.05 µM): 0.767 | relative viability (PC-14; first compound 0.1581 µM): 0.842 | relative viability (PC-14; first compound 0.5 µM): 0.748 | relative viability (SW 900; first compound 0.005 µM): 0.497 | relative viability (SW 900; first compound 0.01581 µM): 0.681 | relative viability (SW 900; first compound 0.05 µM): 0.534 | relative viability (SW 900; first compound 0.1581 µM): 0.395 | relative viability (SW 900; first compound 0.5 µM): 0.546
